The test system of experiment [1] is A2058 (human melanoma) cell line. Nature of the experiment: Cell viability assay (CELL-TITER-GLO), A2058. It is filed as cell-based. The following applies: A2058 cells, 48 hour treatment, 1 nM to 1 μM. On the procedure: (§1) Cell viability assays were run using standard protocols known to those of skill in art. Cells were plated in 96 well plates at the density of 3,000-10,000 cells per well. Twenty four hours later, cells were treated with increasing concentration of test compounds (1 nM to 1 μM). After another 48 hour, cell survival was measured using CELL-TITER-GLO® reagent (Promega) following the protocol provided by the manufacture. The IC50 value was determined as the concentration of test compound that kills 50% of the cell population.
(§2) Cell viability data generated according to the protocol described herein was generated for representative compounds in the A2058 (human melanoma) and U937 (human leukemic monocyte lymphoma) cell lines. The compound of Example 16 (“Compound J”) was used as a reference compound.

Experiment [2] concerns U937 (human leukemic monocyte lymphoma) cell line. In words: Cell viability assay (CELL-TITER-GLO), U937. It is filed as cell-based. The following applies: U-937, U937 cells, 48 hour treatment, 1 nM to 1 μM. On the procedure:
as §1, §2

The subject of experiment [3] is MiaPaca (pancreatic cancer) cells. In words: MiaPaca xenograft model, tumor free animals. The following applies: 20 mg/kg, tail vein injection, 6 injections (days 9, 11, 14, 16, 18, 21); at 35 days post tumor cell injection; 7 mice/group. The class given is in vivo, Athymic nude mice. Here is the method: Animals: Athymic nude mice, female, 6-7 weeks old, 20-25 g. Animals bearing with 180-400 mg tumors were selected for experiment. 7 mice/group.
Administration: Tail vein injection, 200 μL/mouse, to provide the dose indicated.
Dosing schedule: 6 injections were given on the days indicated post-tumor cell injection.
Controls: Vehicle, Compound J at 20 mg/kg.
Test Compound preparation: Compound J and all test compounds were dissolved in 50% Cremophore/EtOH (1:1) at 10 mg/mL as stock solution. Each compound solution was diluted with saline before injection to the concentration indicated.
Xenograft Model: MiaPaca (pancreatic cancer) cells
Dosing schedule: 6 injections were given on days 9, 11, 14, 16, 18 and 21 post-tumor cell injection.
Test Compounds: Example 23, Example 24, and Example 53, at 20 mg/kg.
For animals treated with the compound of Example 24 at 20 mg/kg, 7 of 7 animals were tumor free at 35 days post tumor cell injection.

Molecules are shown by their SMILES.

The IC50 is the concentration that gives 50% inhibition. As for `CC(C)[C@H](O)C(=O)N[C@H]1Cc2ccc3c(c2)[C@]24C5=C(N=C(O5)[C@H](C(C)C)NC1=O)c1ncc(o1)-c1c[nH]c5cccc(c15)-c1cccc2c1NC4O3` (stereo partly drawn) [Example 16, reference compound], the results for the IC50 in experiment [1] and in experiment [2] were 0.043 µM and 0.034 µM, respectively. Further, the “Tumor-free animals out of 7” value in experiment [3] is reported as 0/7 (35).
As for `CCC(C)(O)C(=O)NC1Cc2ccc3c(c2)[C@]24C5=C(N=C(O5)[C@H](C(C)C)NC1=O)c1ncc(o1)-c1c[nH]c5cccc(c15)-c1cccc2c1NC4O3` (stereo partly drawn) [Example 23], the results for the half-maximal inhibitory concentration (IC50) in experiment [1] and in experiment [2] were 0.124 µM and 0.156 µM, respectively. Moreover, in experiment [3], the “Tumor-free animals out of 7” value is 0/7 (35).
For `CC(C)[C@@H]1NC(=O)C(NC(=O)[C@H]2CCOC2)Cc2ccc3c(c2)[C@]24C5=C(N=C1O5)c1ncc(o1)-c1c[nH]c5cccc(c15)-c1cccc2c1NC4O3` (stereo partly drawn) [Example 53], in that order: 0.209 µM, 0.078 µM and 1/7 (35).
Regarding `C=CCOC(=O)NC1Cc2ccc3c(c2)[C@]24C5=C(N=C(O5)[C@H](C(C)C)NC1=O)c1ncc(o1)-c1c[nH]c5cccc(c15)-c1cccc2c1NC4O3` (stereo partly drawn) [Example 71], the results for the IC50 in experiment [1] and in experiment [2] were 0.451 µM and 0.185 µM, respectively.
The corresponding values for `CCCSC(=O)NC1Cc2ccc3c(c2)[C@]24C5=C(N=C(O5)[C@H](C(C)C)NC1=O)c1ncc(o1)-c1c[nH]c5cccc(c15)-c1cccc2c1NC4O3` (stereo partly drawn) [Example 72] are 0.6 µM and 0.543 µM.
`CC(C)[C@@H]1NC(=O)C(NS(C)(=O)=O)Cc2ccc3c(c2)C24C5=C(N=C1O5)c1ncc(o1)-c1c[nH]c5cccc(c15)-c1cccc2c1N[C@H]4O3` (stereo partly drawn) [Example 73]: the results for the IC50 in experiment [1] and in experiment [2] were 0.14 µM and 0.067 µM, respectively.
As for `CC(C)[C@@H]1NC(=O)C(NS(=O)(=O)c2ccccc2)Cc2ccc3c(c2)[C@]24C5=C(N=C1O5)c1ncc(o1)-c1c[nH]c5cccc(c15)-c1cccc2c1NC4O3` (stereo partly drawn) [Example 74], the IC50 in experiment [1] was 0.429 µM; in experiment [2], > 1 µM.
The corresponding values for `CC(C)[C@@H]1NC(=O)C(NS(=O)(=O)c2cccs2)Cc2ccc3c(c2)[C@]24C5=C(N=C1O5)c1ncc(o1)-c1c[nH]c5cccc(c15)-c1cccc2c1NC4O3` (stereo partly drawn) [Example 75] are > 1 µM and > 1 µM.
Take `COC(=O)c1nc2oc1-c1c[nH]c3cccc(c13)-c1cccc3c1N[C@H]1Oc4ccc5cc4C31c1oc(nc1-2)[C@H](C(C)C)NC(=O)C(NC(=O)[C@@H](O)C(C)C)C5` (stereo partly drawn) [Example 76]: the IC50 was 0.013 µM in experiment [1] and 0.018 µM in experiment [2].
For `CC(C)[C@H](O)C(=O)NC1Cc2ccc3c(c2)C24C5=C(N=C(O5)[C@H](C(C)C)NC1=O)c1ncc(o1)-c1c[nH]c5c(O)ccc(c15)-c1cccc2c1N[C@H]4O3` (stereo partly drawn) [Example 77], in that order: 0.07 µM and 0.052 µM.
The corresponding values for `COc1ccc2c3c(c[nH]c13)-c1cnc(o1)-c1nc3oc1C14c5cc(ccc5O[C@@H]1Nc1c-2cccc14)CC(NC(=O)[C@@H](O)C(C)C)C(=O)N[C@H]3C(C)C` (stereo partly drawn) [Example 78] are 0.042 µM and 0.051 µM.
Turning to `COc1ccc2c3c(cn(C)c13)-c1cnc(o1)-c1nc3oc1C14c5cc(ccc5O[C@@H]1Nc1c-2cccc14)CC(NC(=O)[C@@H](O)C(C)C)C(=O)N[C@H]3C(C)C` (stereo partly drawn) [Example 79], the IC50 in experiment [1] was found to be 0.022 µM; in experiment [2], 0.027 µM.
Turning to `CCC(O)(CC)C(=O)N[C@H]1Cc2ccc3c(c2)C24C5=C(N=C(O5)[C@H](C(C)C)NC1=O)c1ncc(o1)-c1c[nH]c5c(O)ccc(c15)-c1cccc2c1N[C@H]4O3` (stereo partly drawn) [Example 80], the values for the IC50 in experiment [1] and in experiment [2] were 0.183 µM and 0.182 µM, respectively.
The corresponding values for `CCC(O)(CC)C(=O)N[C@H]1Cc2ccc3c(c2)C24C5=C(N=C(O5)[C@H](C(C)C)NC1=O)c1ncc(o1)-c1c[nH]c5c(OC)ccc(c15)-c1cccc2c1N[C@H]4O3` (stereo partly drawn) [Example 81] are 0.123 µM and 0.054 µM.
In the case of `CCC(O)(CC)C(=O)N[C@H]1Cc2ccc3c(c2)C24C5=C(N=C(O5)[C@H](C(C)C)NC1=O)c1ncc(o1)-c1cn(C)c5c(OC)ccc(c15)-c1cccc2c1N[C@H]4O3` (stereo partly drawn) [Example 82], the IC50 in experiment [1] was determined as 0.029 µM; in experiment [2] it was 0.021 µM.
For `CC(C)[C@H](O)C(=O)N[C@H]1Cc2ccc3c(c2)C24C5=C(N=C(O5)[C@H](C(C)C)NC1=O)c1nc(Cl)c(o1)-c1c(Cl)[nH]c5cccc(c15)-c1cc(Cl)cc2c1N[C@H]4O3` (stereo partly drawn) [Example 83], in that order: 0.63 µM and 0.693 µM.
In the case of `CC(C)[C@H](O)C(=O)N[C@H]1Cc2ccc3c(c2)C24C5=C(N=C(O5)[C@H](C(C)C)NC1=O)c1ncc(o1)-c1c[nH]c5cccc(c15)-c1cc(Br)cc2c1N[C@H]4O3` (stereo partly drawn) [Example 84], the IC50 stood at 0.51 µM in experiment [1] and 0.648 µM in experiment [2].
For `CC(C)[C@H](O)C(=O)N[C@H]1Cc2ccc3c(c2)C24C5=C(N=C(O5)[C@H](C(C)C)NC1=O)c1nc(Cl)c(o1)-c1c[nH]c5cccc(c15)-c1cccc2c1N[C@H]4O3` (stereo partly drawn) [Example 86], in that order: 0.081 µM and 0.084 µM.
For `CCC(O)(CC)C(=O)N[C@H]1Cc2ccc3c(c2)C24C5=C(N=C(O5)[C@H](C(C)C)NC1=O)c1ncc(o1)-c1c[nH]c5cccc(c15)-c1cc(Br)cc2c1N[C@H]4O3` (stereo partly drawn) [Example 87], the IC50 in experiment [1] and in experiment [2] was > 1 µM throughout.
For `CCC(O)(CC)C(=O)N[C@H]1Cc2ccc3c(c2)C24C5=C(N=C(O5)[C@H](C(C)C)NC1=O)c1nc(Br)c(o1)-c1c[nH]c5cccc(c15)-c1cc(Br)cc2c1N[C@H]4O3` (stereo partly drawn) [Example 88], the IC50 in experiment [1] and in experiment [2] was > 1 µM in each case.
Consider `CC(C)[C@H](O)C(=O)N[C@H]1Cc2ccc3c(c2)C24C5=C(N=C(O5)[C@H](C(C)C)NC1=O)c1nc(Br)c(o1)-c1c(Cl)[nH]c5cccc(c15)-c1cccc2c1N[C@H]4O3` (stereo partly drawn) [Example 89], for which the IC50 in experiment [1] was found to be 0.158 µM; in experiment [2] it was 0.079 µM.
For `CCC(O)(CC)C(=O)NC1Cc2ccc3c(c2)C24C5=C(N=C(O5)[C@H](C(C)C)NC1=O)c1nc(Cl)c(o1)-c1c(Cl)[nH]c5cccc(c15)-c1cccc2c1N[C@H]4O3` (stereo partly drawn) [Example 90], in that order: 0.375 µM and 0.302 µM.
For `CCC(O)(CC)C(=O)NC1Cc2ccc3c(c2)C24C5=C(N=C(O5)[C@H](C(C)C)NC1=O)c1nc(Cl)c(o1)-c1c(Cl)[nH]c5cccc(c15)-c1cc(Cl)cc2c1N[C@H]4O3` (stereo partly drawn) [Example 91], in that order: > 1 µM and > 1 µM.
The corresponding values for `CC(C)[C@@H]1NC(=O)C(NC(C[N+](=O)[O-])C(F)(F)F)Cc2ccc3c(c2)C24C5=C(N=C1O5)c1ncc(o1)-c1c[nH]c5cccc(c15)-c1cccc2c1N[C@H]4O3` (stereo partly drawn) [Example 92] are > 1 µM and 0.75 µM.

Source of the values: patent publication US8476256B2, “Diazonamide analogs” (Joyant Pharmaceuticals, Inc., priority 2008, dated 2013).
